According to patent US9969696B2, “Compounds as inhibitor of DNA double-strand break repair, methods and applications thereof” (INDIAN INSTITUTE OF SCIENCE, priority 2012, dated 2018):

What was measured:
HT1080 = test: MTT assay, HT1080; format: cell-based; conditions: Homo sapiens, HT-1080
Ligase IV = molecular target: T1, Ligase IV (Homo sapiens, UniProt P49917); test: CD spectroscopy, Ligase IV; format: binding; conditions: 200-260 nm
T1 construct: made in house
T1 sequence (P49917 1-911): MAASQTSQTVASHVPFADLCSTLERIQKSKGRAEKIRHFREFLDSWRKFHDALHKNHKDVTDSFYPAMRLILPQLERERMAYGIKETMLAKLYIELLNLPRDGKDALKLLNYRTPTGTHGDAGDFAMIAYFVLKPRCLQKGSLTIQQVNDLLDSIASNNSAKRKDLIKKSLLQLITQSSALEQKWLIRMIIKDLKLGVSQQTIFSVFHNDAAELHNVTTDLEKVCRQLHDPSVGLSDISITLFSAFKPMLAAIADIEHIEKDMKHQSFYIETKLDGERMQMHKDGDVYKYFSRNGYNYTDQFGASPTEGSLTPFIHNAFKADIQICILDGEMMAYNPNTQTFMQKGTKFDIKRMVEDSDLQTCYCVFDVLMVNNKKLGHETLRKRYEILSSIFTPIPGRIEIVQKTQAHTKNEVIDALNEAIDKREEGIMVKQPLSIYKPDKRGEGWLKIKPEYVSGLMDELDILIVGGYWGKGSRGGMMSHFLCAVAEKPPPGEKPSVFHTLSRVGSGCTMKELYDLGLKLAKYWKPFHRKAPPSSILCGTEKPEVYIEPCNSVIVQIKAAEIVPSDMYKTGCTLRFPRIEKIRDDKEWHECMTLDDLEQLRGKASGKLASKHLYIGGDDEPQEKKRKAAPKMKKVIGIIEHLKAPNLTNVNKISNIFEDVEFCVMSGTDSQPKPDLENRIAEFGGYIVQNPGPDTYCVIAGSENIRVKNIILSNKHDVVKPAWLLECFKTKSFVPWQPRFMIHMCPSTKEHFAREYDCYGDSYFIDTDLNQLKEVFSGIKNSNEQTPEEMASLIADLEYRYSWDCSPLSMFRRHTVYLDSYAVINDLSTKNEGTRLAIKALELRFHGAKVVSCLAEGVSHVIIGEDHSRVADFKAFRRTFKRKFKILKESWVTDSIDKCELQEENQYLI
Description: A. Western blot analysis of KU70 and KU80 proteins in purified fractions. W is wash, 1, 2 and 3 are different fractions. B. Binding of KU proteins to DNA breaks. [−γ^32P]ATP end-labeled oligomeric DNA substrate containing DSB is incubated for about 30 min on ice with purified KU or Ligase IV/XRCC4 complex. For Ligase IV/XRCC4 supershift, first KU and DNA are incubated followed by addition of Ligase IV/XRCC4 (about 60 fmol). Reaction mixture is resolved on 1-6% native gradient PAGE. C. […] After preincubation of KU with DNA substrates, Ligase IV/XRCC4 complex (about 60 fmol) and increasing concentrations of inhibitor (10, 50, 100, 200, 500 and 700µM) are added, incubated and products are resolved on a gradient native PAGE. D-1 and D-2. […] CD spectra are obtained at a wavelength of 200-260 nm for […]

MCF7 cells = test: Western blotting for apoptotic and DNA repair markers, MCF7; format: cell-based, human; conditions: MCF7, 20 and 40 μM, about 24 h
From the text: PARP1 plays a major role in DNA damage induced apoptosis and is the main target of caspases.
Antibodies against Ki67 (cell proliferation), ATM, pATM, p53BP1, p21 (DNA repair), BID and Caspase 3 (apoptosis) are used. […] Green color indicates methyl green stained nuclei while brown indicates DNA breaks stained with diaminebenzidine, which is an indication of apoptosis. C. […] GAPDH is used as loading control.

DNA end joining (NHEJ) = test: NHEJ assay, cell-free extracts prepared from rat testes; format: biochemical
Description: ATP end-labeled oligomeric DNA substrate (75 bp) containing 4 nt overhangs at 5′ ends (about 2 h at 25° C.). In the case of vehicle control, DMSO is used. […] The reaction products are purified and resolved on about 8% denaturing polyacrylamide gel.
FIG. 2 depicts the NHEJ assay and study of joining efficiency. A. Schematic representation of NHEJ assay and substrates containing DSBs. B. Comparison of the effect of potential Ligase IV inhibitors on DNA end joining. The joined products are indicated. “M” represents [g-32 ? P] ATP end-labeled 50 by ladder. C. Quantification of the joining efficiency. […] “PSLU” is “photostimulated luminescence unit”. […] Products are resolved on 1% agarose gel and visualized. Ethidium bromide is used as a positive control for the intercalation assay.
The reaction products are resolved on 8% denaturing PAGE. “M” represents [γ-^32P]ATP end-labeled 50 by ladder. […] “M” is a 2 log DNA ladder.
A. Western blotting showing presence of Ligase IV/XRCC4 in eluted fractions. W is wash, 1 and 2 are different fractions. […] Concentrations of inhibitors used are indicated. For other details, FIG. 4 legend can be referred. C. […] Radiolabeled oligomeric DNA substrates containing 5′ compatible termini are then added to the reaction along with increasing concentrations of purified Ligase IV/XRCC4 complex (30, 60 and 120 fmol) and products are resolved on a PAGE. F. Bar diagram representing quantification of the complementation experiment performed on 5′-5′ and 5′-3′ noncomplementary ends. In all panels quantification of EJ based on 3 independent experiments is represented as mean±SEM.

Oc1nc(S)nc(/N=C/c2ccccc2)c1/N=C/c1ccccc1 [Compound 1, (5E,6E)-5,6-bis(benzylideneamino)-2-mercaptopyrimidin-4-ol]
IC50 (HT1080): ~60 µM
CD spectrum of Ligase IV upon addition of compound (Ligase IV): clear shift in the spectrum
Expression of BCL2 (MCF7 cells): decreases
Levels of BAD (MCF7 cells): remain unchanged
MDM2 (MCF7 cells): concomitant decrease in MDM2
PARP1 and Caspase 3 cleavage (MCF7 cells): dose-dependent increase
Phosphorylation of ATM (MCF7 cells): increase in phosphorylation
Precursor Caspase 9 (MCF7 cells): Activation of precursor Caspase 9
Proapoptotic proteins PUMA and BAX (MCF7 cells): activation of proapoptotic proteins
Shorter fragment of MCL1 (MCF7 cells): upregulated in a dose-dependent manner
p53 (MCF7 cells): Activation of p53
End joining in testicular extracts (DNA end joining (NHEJ); Compound 1 about 150 μM added to testicular extracts): abrogates end joining
Complementation by purified Ligase IV/XRCC4 of inhibited end joining (DNA end joining (NHEJ); Compound 1 about 150 μM, Ligase IV/XRCC4 30, 60, 120 fmol added): restores joining for all the ends
Inhibition of end joining (EJ) of various types of DSBs (DNA end joining (NHEJ); cell-free repair system from rat testes, compatible, noncompatible, blunt ends): inhibits end joining (EJ) irrespective of type and configurations of DSB
Inhibition of DNA end joining (joining efficiency) (DNA end joining (NHEJ); rat testes extracts about 0.5 μg, inhibitors about 150 μM, 75 bp oligomeric DNA with 4 nt 5' overhangs): most potent inhibitor
